Source: ChEMBL document CHEMBL1909558, “Discovery, synthesis and SAR analysis of novel selective small molecule S1P4-R agonists based on a (2Z,5Z)-5-((pyrrol-3-yl)methylene)-3-alkyl-2-(alkylimino)thiazolidin-4-one chemotype” (Bioorg Med Chem Lett, 2011)
Activity calls are given as the source filed them. The calls are words filed in the database; no cut-off is given here.

Columns and labels:
[1] = target: T1, Sphingosine 1-phosphate receptor 5 (Homo sapiens, UniProt Q9H228); assay: Agonist activity at S1P5 receptor; format: functional
T1 sequence (Q9H228 whole entry, the tested form may be a part): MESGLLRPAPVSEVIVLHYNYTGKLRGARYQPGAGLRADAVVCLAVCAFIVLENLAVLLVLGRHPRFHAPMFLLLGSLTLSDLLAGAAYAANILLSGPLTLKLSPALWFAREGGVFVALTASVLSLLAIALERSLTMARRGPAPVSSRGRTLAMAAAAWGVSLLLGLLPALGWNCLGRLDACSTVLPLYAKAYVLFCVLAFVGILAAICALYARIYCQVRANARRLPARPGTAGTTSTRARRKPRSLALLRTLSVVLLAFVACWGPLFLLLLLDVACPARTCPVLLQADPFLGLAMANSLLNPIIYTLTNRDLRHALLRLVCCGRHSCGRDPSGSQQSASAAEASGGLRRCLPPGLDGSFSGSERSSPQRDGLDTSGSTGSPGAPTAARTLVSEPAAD

[2] = target: T2, Sphingosine 1-phosphate receptor 4 (Homo sapiens, UniProt O95977); assay: Agonist activity at S1P4 receptor in human U2OS cells expressing VP16-GAL4 transcriptional factor and beta-arrestin/TEV protease fusion protein assessed as migration of VP16-GAL4 into nucleus by FRET based beta lactamase reporter gene assay; format: functional, cell-based
T2 sequence (O95977 whole entry): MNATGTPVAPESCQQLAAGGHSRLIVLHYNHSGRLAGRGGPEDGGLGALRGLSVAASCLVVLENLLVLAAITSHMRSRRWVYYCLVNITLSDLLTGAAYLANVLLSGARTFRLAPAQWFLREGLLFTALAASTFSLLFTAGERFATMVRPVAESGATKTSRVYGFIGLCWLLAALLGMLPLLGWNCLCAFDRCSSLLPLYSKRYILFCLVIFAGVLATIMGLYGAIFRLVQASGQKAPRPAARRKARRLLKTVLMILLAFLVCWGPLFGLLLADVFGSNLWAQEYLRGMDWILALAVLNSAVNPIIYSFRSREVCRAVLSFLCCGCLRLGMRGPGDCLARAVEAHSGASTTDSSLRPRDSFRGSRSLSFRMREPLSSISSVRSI

[3] = target: T3, Sphingosine 1-phosphate receptor 1 (Homo sapiens, UniProt P21453); assay: Agonist activity at S1P1 receptor; format: functional
T3 sequence (P21453 whole entry, the tested form may be a part): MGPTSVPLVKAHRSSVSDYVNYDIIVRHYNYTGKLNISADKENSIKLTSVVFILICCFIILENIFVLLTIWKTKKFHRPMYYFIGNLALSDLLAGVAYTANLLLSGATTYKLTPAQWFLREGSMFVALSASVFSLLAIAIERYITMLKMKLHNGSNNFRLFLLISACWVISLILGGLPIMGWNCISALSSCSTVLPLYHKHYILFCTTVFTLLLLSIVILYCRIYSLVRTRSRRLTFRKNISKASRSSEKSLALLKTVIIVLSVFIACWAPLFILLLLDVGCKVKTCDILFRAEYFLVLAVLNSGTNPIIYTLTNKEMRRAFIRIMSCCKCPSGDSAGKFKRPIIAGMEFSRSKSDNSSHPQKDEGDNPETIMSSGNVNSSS

[4] = target: T4, Sphingosine 1-phosphate receptor 4 (Homo sapiens) (UniProt O95977); assay: Agonist activity at S1P4 receptor in human U2OS cells expressing VP16-GAL4 transcriptional factor and beta-arrestin/TEV protease fusion protein assessed as migration of VP16-GAL4 into nucleus at 25 uM by FRET based beta lactamase reporter gene assay; format: functional, cell-based
T4 sequence (whole entry): T2 sequence (O95977 whole entry)

[5] = target: Sphingosine 1-phosphate receptor 3 (Homo sapiens) (UniProt Q99500); assay: Agonist activity at S1P3 receptor at 25 uM; format: functional
Sphingosine 1-phosphate receptor 3 (Homo sapiens), sequence (Q99500 whole entry): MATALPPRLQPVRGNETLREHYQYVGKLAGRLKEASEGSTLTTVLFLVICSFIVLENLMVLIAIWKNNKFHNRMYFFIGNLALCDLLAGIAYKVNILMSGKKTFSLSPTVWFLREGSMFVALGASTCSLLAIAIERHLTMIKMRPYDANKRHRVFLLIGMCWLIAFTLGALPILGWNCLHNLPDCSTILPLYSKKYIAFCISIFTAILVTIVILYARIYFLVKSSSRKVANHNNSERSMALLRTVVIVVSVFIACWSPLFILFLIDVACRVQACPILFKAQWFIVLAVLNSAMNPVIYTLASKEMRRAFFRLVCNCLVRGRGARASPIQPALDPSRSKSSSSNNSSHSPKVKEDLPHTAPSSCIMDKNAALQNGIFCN

[6] = target: T5, Sphingosine 1-phosphate receptor 2 (Homo sapiens, UniProt O95136); assay: Agonist activity at S1P2 receptor at 25 uM; format: functional
T5 sequence (O95136 whole entry): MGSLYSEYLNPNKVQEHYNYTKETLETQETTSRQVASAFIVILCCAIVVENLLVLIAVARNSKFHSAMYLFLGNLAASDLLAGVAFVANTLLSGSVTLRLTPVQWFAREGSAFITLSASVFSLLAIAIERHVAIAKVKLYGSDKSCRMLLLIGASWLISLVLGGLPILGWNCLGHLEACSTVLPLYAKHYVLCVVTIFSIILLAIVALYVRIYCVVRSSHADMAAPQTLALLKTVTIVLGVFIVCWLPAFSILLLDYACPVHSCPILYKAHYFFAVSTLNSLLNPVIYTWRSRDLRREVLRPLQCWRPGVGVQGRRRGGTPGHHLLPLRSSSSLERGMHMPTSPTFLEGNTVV

[7] = target: T3, Sphingosine 1-phosphate receptor 1; assay: Agonist activity at S1P1 receptor at 25 uM; format: functional
[8] = target: T1, Sphingosine 1-phosphate receptor 5; assay: Agonist activity at S1P5 receptor at 25 uM; format: functional
[9] = target: T1, Sphingosine 1-phosphate receptor 5; assay: Agonist activity at S1P5 receptor at 8.3 uM; format: functional
[10] = target: T3, Sphingosine 1-phosphate receptor 1; assay: Agonist activity at S1P1 receptor at 8.3 uM; format: functional
[11] = target: T4, Sphingosine 1-phosphate receptor 4 (Homo sapiens); assay: Agonist activity at S1P4 receptor relative to control; format: functional
UOS2 [12] = assay: Selectivity ratio of EC50 for S1P5 receptor to EC50 for S1P4 receptor in human […] cells; format: cell-based
[13] = target: T1, Sphingosine 1-phosphate receptor 5; assay: Agonist activity at S1P5 receptor relative to control; format: functional
[14] = target: T3, Sphingosine 1-phosphate receptor 1; assay: Antagonist activity at S1P1 receptor at 25 uM; format: functional
[15] = target: T3, Sphingosine 1-phosphate receptor 1; assay: Agonist activity at S1P1 receptor relative to control; format: functional
[16] = target: T5, Sphingosine 1-phosphate receptor 2; assay: Agonist activity at S1P2 receptor; format: functional
UOS2 [17] = assay: Selectivity ratio of EC50 for S1P1 receptor to EC50 for S1P4 receptor in human […] cells; format: cell-based

CCCCCCCCc1ccc2nc([C@@H](N)COP(=O)(O)O)[nH]c2c1
EC50 [1]: 0.0082 µM | EC50 [2]: 0.036 µM | EC50 [3]: 0.021 µM

C/N=C1\S/C(=C\c2cc(C)n(-c3ccc(OC)c(C(F)(F)F)c3)c2C)C(=O)N1C
Activity [4]: inactive

CC/N=C1\S/C(=C\c2cc(C)n(-c3ccccc3F)c2C)C(=O)N1CC
Activity [5]: inactive | EC50 [2]: 0.25 µM | Activity [6]: inactive | Activity [7]: inactive | Activity [8]: inactive

C/N=C1\S/C(=C\c2cc(C)n(-c3ccccc3C)c2C)C(=O)N1C
Activity [4]: inactive

C/N=C1\S/C(=C\c2cc(C)n(Cc3c(F)cccc3F)c2C)C(=O)N1C
EC50 [1]: 0.034 µM | Efficacy [5]: 70% | EC50 [2]: 0.092 µM | EC50 [3]: 0.034 µM | Efficacy [6]: 120%

C/N=C1\S/C(=C\c2cc(C)n(Cc3ccccc3F)c2C)C(=O)N1C
EC50 [1]: 0.051 µM | Efficacy [5]: 25% | EC50 [2]: 0.072 µM | EC50 [3]: 0.25 µM | Efficacy [6]: 60%

Cc1cc(/C=C2\S/C(=N\CCO)N(C)C2=O)c(C)n1-c1ccccc1F
Activity [5]: inactive | Efficacy [9]: 60% | EC50 [2]: 0.306 µM | Activity [6]: inactive | Efficacy [10]: 20%

C/N=C1\S/C(=C\c2cc(C)n(-c3ccc(F)cc3F)c2C)C(=O)N1CCOC
EC50 [2]: 1.7 µM

C/N=C1\S/C(=C\c2cc(C)n(-c3ncccc3F)c2C)C(=O)N1C
EC50 [2]: 3.1 µM | Efficacy [11]: 70%

Cc1cc(/C=C2\S/C(=N\C(C)C)N(C(C)C)C2=O)c(C)n1-c1ccccc1F
Activity [4]: inactive

C/N=C1\S/C(=C\c2cc(C)n(-c3ccccc3Br)c2C)C(=O)N1C
Activity [4]: inactive

C/N=C1/NC(=O)/C(=C/c2c(C)nn(-c3ccc(F)cc3)c2C)S1
Activity [4]: inactive

C/N=C1\S/C(=C\c2cc(C)n(-c3cccc(F)c3)c2C)C(=O)N1C
EC50 [2]: 1.6 µM | Efficacy [11]: 60%

Cc1cc(/C=C2\SC(=N)NC2=O)c(C)n1-c1ccccc1F
Activity [4]: inactive

CC/N=C1\S/C(=C\c2cc(C)n(Cc3c(F)cccc3F)c2C)C(=O)N1CC
EC50 [1]: 0.022 µM | Activity [5]: inactive | EC50 [2]: 0.314 µM | EC50 [3]: 0.018 µM | Activity [6]: inactive

CCC/N=C1\S/C(=C\c2cc(C)n(-c3ccccc3F)c2C)C(=O)N1CCC
Activity [4]: inactive

C/N=C1\S/C(=C\c2cc(C)n(-c3cccc4ccccc34)c2C)C(=O)N1C
Activity [4]: inactive

N[C@H](CNC(=O)c1cc2c(-c3ccccc3Cc3ccccc3)cccc2[nH]1)C(=O)O
EC50 [1]: 2.4 µM | EC50 [2]: 0.01 µM | EC50 [3]: > 10 µM

C/N=C1\O/C(=C\c2cc(C)n(-c3ccccc3F)c2C)C(=O)N1C
Activity [4]: inactive

CC/N=C1\S/C(=C\c2cc(C)n(-c3ncccc3F)c2C)C(=O)N1CC
EC50 [2]: 5.4 µM | Efficacy [11]: 70%

COCC/N=C1\S/C(=C\c2cc(C)n(-c3ccc(F)cc3F)c2C)C(=O)N1C
EC50 [1]: 2.1 µM | Activity [5]: inactive | EC50 [2]: 0.056 µM | Activity [6]: inactive | Activity [7]: inactive | Ratio EC50 (UOS2 [12]): 37

Cc1cc(/C=C2\S/C(=N\CCO)N(C)C2=O)c(C)n1Cc1ccccc1
EC50 [2]: 0.396 µM

C/N=C1\S/C(=C\c2cc(C)n(-c3cc(C)ccc3OC)c2C)C(=O)N1C
Activity [4]: inactive

C/N=C1\S/C(=C\c2cc(C)n(CCc3ccccc3)c2C)C(=O)N1C
EC50 [2]: 0.66 µM | Efficacy [11]: 20%

C/N=C1/NC(=O)/C(=C/c2ccn(-c3ccccc3F)c2)S1
Activity [4]: inactive

C/N=C1\S/C(=C\c2cc(C)n(Cc3ccc(F)cc3F)c2C)C(=O)N1C
EC50 [1]: 0.037 µM | Activity [5]: inactive | EC50 [2]: 0.147 µM | EC50 [3]: 0.287 µM | Activity [6]: inactive

CC/N=C1\S/C(=C\c2cc(C)n(-c3ccccc3)c2C)C(=O)N1CC
EC50 [1]: 0.237 µM | Activity [5]: inactive | EC50 [2]: 0.602 µM | EC50 [3]: 0.068 µM | Activity [6]: inactive

C/N=C1\S/C(=C\c2cc(C)n(-c3ccccc3F)c2C)C(=O)N1C
EC50 [1]: 0.721 µM | Activity [5]: inactive | EC50 [2]: 0.205 µM | EC50 [3]: 0.819 µM | Activity [6]: inactive | Efficacy [13]: 70%

COCC/N=C1\S/C(=C\c2cc(C)n(Cc3ccccc3)c2C)C(=O)N1C
EC50 [1]: 0.196 µM | Activity [5]: inactive | EC50 [2]: 0.068 µM | Activity [6]: inactive | inhibition [14]: 85% | Efficacy [13]: 80%

C/N=C1/NC(=O)/C(=C/c2cc(C)n(-c3ccccc3F)c2C)S1
EC50 [2]: 3.6 µM

C/N=C1/NC(=O)/C(=C/c2cc(C)n(-c3ccc(F)cc3F)c2C)S1
EC50 [2]: 1 µM

C/N=C1\S/C(=C\c2cc(C)n(-c3ccc(F)c(C#N)c3)c2C)C(=O)N1C
EC50 [2]: 3.2 µM | Efficacy [11]: 50%

C/N=C1/NC(=O)/C(=C/c2c(C)n(Cc3ccccc3)c3ccccc23)S1
Activity [4]: inactive

Cc1cc(/C=C2\SC(=O)N(C)C2=O)c(C)n1-c1ccccc1F
Activity [4]: inactive

COCC/N=C1\S/C(=C\c2cc(C)n(Cc3ccccc3)c2C)C(=O)N1CCOC
Activity [4]: inactive

Cc1cc(/C=C2\S/C(=N\c3ccccc3)N(C)C2=O)c(C)n1-c1ccccc1F
EC50 [2]: 2.8 µM

CC/N=C1\S/C(=C\c2cc(C)n(-c3cccc4ccccc34)c2C)C(=O)N1CC
Activity [4]: inactive

C/N=C1/NC(=O)/C(=C/c2cnn(-c3ccc(F)cc3)c2C)S1
EC50 [2]: 3.8 µM

C/N=C1\S/C(=C\c2cc(C)n(-c3ccccc3Cl)c2C)C(=O)N1C
Activity [4]: inactive

C/N=C1\S/C(=C\c2cc(C)n(-c3ccc(F)cc3)c2C)C(=O)N1C
EC50 [1]: 0.652 µM | Activity [5]: inactive | EC50 [2]: 0.433 µM | EC50 [3]: 1.8 µM | Activity [6]: inactive | Efficacy [15]: 70% | Efficacy [13]: 50%

C/N=C1\S/C(=C\c2cc(C)n(-c3ccccn3)c2C)C(=O)N1C
EC50 [2]: 1.8 µM

C/N=C1\S/C(=C\c2cc(C)n(-c3ccc(Cl)cc3F)c2C)C(=O)N1C
EC50 [1]: 3.4 µM | Activity [5]: inactive | EC50 [2]: 0.44 µM | EC50 [3]: 3.01 µM | Activity [6]: inactive

CCCC/N=C1\S/C(=C\c2cc(C)n(-c3ccccc3F)c2C)C(=O)N1CCCC
Activity [4]: inactive

C/N=C1\S/C(=C\c2cc(C)n(Cc3ccccc3)c2C)C(=O)N1C
EC50 [1]: 0.144 µM | Activity [5]: inactive | EC50 [2]: 0.262 µM | EC50 [3]: 0.72 µM | EC50 [16]: 3.65 µM

C/N=C1\S/C(=C\c2cc(C)n(-c3ccc(C)cc3C)c2C)C(=O)N1C
Activity [4]: inactive

CC/N=C1\S/C(=C\c2cc(C)n(CCc3ccccc3)c2C)C(=O)N1CC
Activity [4]: inactive

CC/N=C1\NC(=O)/C(=C/c2cc(C)n(-c3ccccc3F)c2C)S1
Activity [4]: inactive

C/N=C1\S/C(=C\c2cc(C)n(-c3ccc(F)cc3F)c2C)C(=O)N1C
Activity [5]: inactive | EC50 [2]: 0.21 µM | EC50 [3]: 4.47 µM | Ratio EC50 (UOS2 [17]): 21 | Activity [6]: inactive | Activity [8]: inactive

C/N=C1/NC(=O)/C(=C/c2cnn(-c3ccc(F)cc3F)c2)S1
Activity [4]: inactive

CCCCCCCCc1ccc([C@H]2C[C@H](COP(=O)(O)O)N[C@@H]2CO)cc1
EC50 [3]: > 10 µM

Cc1cc(/C=C2\S/C(=N\c3ccccn3)NC2=O)c(C)n1-c1ccccc1F
EC50 [2]: 2.1 µM | Efficacy [11]: 70%

CC/N=C1\S/C(=C\c2cc(C)n(-c3ccc(F)cc3F)c2C)C(=O)N1CC
EC50 [1]: 6.18 µM | Activity [5]: inactive | EC50 [2]: 0.104 µM | EC50 [3]: 0.816 µM | Activity [6]: inactive

CCC/N=C1\NC(=O)/C(=C/c2cc(C)n(-c3ccccc3F)c2C)S1
Activity [4]: inactive

C/N=C1/NC(=O)/C(=C/c2cnn(-c3ccccc3F)c2)S1
Activity [4]: inactive

Cc1cc(/C=C2\S/C(=N\c3ccccc3)NC2=O)c(C)n1-c1ccccc1F
Activity [4]: inactive

C/N=C1/NC(=O)/C(=C/c2ccn(Cc3ccccc3)c2)S1
Activity [4]: inactive
